Source: patent US12637499B2, “Adrenomedullin analog, method for producing the same, and pharmaceutical use thereof” (priority 2020, dated 2026)
Where a SMILES comes first, the peptide text is derived from it. Bridges are numbered along the chain shown (N, C = ends).

How the values were obtained:
in vitro = conditions: for stability in reaction mixture with human serum: Experiment VIII, 10^−7 M, 37° C., 4 hours after the beginning of reaction
Protocol: The stabilities of the AM analog peptides in serum were evaluated with the same procedure as in Experiment I except the following procedure. […] A reaction mixture containing 4 μL of phosphate buffer, 20 μL of human serum (Sigma-Aldrich Co. LLC, USA), and 14 μL of water was prepared. To the reaction mixture, 2 μL of AM or an AM analog peptide (2×10^−6 M, final concentration: 10^−7 M) was added, and reaction was initiated at 37° C. The reaction was terminated by addition of 160 μL of ELISA buffer to the reaction mixture 0, 1, or 4 hours after the beginning of reaction. […] In the figure, the abscissa represents reaction time (hr), and the ordinate represents concentration in serum of AM or an AM analog (%) represented as relative values to concentration of AM or an AM analog at the beginning of reaction (i.e., 0 hours after the beginning of reaction).

[1] = biological target: T1, AM type 1 receptor (AMI receptor) (Homo sapiens, UniProt O60895+Q16602); test: Intracellular cAMP production in HEK293 cells stably expressing AM type 1 receptor (Experiments V and IX); assay type: cell-based; conditions: for intracellular cAMP concentration-increasing activity: Experiment IX, addition at 10^−9 M or 10^−8 M, HEK293 cells
T1 construct: expressed in transfected cells; medium contains hygromycin B and Geneticin
T1 sequence (Q16602 23-461): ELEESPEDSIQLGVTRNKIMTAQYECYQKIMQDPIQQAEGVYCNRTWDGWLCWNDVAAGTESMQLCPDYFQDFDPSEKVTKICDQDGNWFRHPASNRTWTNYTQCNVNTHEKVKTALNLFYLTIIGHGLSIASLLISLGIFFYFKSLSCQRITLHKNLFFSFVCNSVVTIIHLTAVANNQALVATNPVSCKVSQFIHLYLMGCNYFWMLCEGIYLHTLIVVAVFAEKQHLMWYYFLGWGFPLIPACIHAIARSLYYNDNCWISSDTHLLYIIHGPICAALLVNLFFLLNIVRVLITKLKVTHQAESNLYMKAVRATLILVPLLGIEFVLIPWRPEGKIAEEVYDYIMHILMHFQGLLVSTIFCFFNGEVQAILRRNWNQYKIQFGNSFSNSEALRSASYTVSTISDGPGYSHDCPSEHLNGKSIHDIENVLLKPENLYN
T1 sequence (O60895 43-175): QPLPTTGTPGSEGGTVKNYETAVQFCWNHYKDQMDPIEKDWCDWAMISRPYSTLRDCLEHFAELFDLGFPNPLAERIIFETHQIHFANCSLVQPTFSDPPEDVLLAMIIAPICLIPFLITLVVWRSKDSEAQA
From the text: The adrenomedullin activity exerted by AM, shown above with examples, will be exerted via increased concentration of intracellular cAMP in normal cases. Thus, the increased concentration of intracellular cAMP can be considered as an index of the adrenomedullin activity of the compound according to the aspect. In each aspect of the invention, the effect of increasing concentration of intracellular cAMP can be evaluated, for example, by adding a target compound to a cultured cell line (HEK293 cell line) caused to stably express an AM type 1 receptor (AMI receptor) and measuring the amount of intracellular cAMP produced.
The physiological effect of AM is known to be exerted via increase in the concentration of intracellular cAMP (see Kitamura K et al., Biochem Biophys Res Commun, 30 Apr. 1993, Volume 192, Issue 2, pp. 553-560). Accordingly, each AM analog was added to a cultured cell line (HEK293 cell line) caused to stably express an AM type 1 receptor (AMI receptor), and the amount of intracellular cAMP produced was measured. HEK293 cells were cultured in Dulbecco's modified Eagle's medium (with 10% fetal bovine serum, 100 U/ml penicillin G, […] streptomycin, 0.25 mg/ml amphotericin B, […] hygromycin B, and […] Geneticin) in a fibronectin-coated 24-well plate (Thermo Fisher Scientific) (under 37° C., humidified, 5% CO2 conditions). After culturing for 3 days, 90%-confluent cells with accumulation of intracellular cAMP stimulated were subjected to experiment. The medium was exchanged with Hanks's balanced salt solution containing 20 mM 4-(2-hydroxyethyl)-1-piperazineethanesulfonic acid and 0.1% bovine serum albumin, AM or an AM analog was added to the cells in the presence of 0.5 mM isobutylmethylxanthine (IBMX), and the cells were incubated at 37° C. for 15 minutes. The reaction was terminated by addition of cell lysis buffer. Then, the amount of intracellular cAMP produced in the HEK293 cells of each well was measured using an ELISA kit for cAMP measurement (GE Healthcare Japan Corp., #RPN2251). […] In the figure, the abscissa represents logarithms of concentration of AM or an AM analog added (M), and the ordinate represents amounts of intracellular cAMP produced in HEK293 cells stably expressing an AMI receptor (fmol/well).
In the figure, the abscissa represents logarithms of concentration of AM or an AM analog added (M), and the ordinate represents amounts of intracellular cAMP produced in HEK293 cells stably expressing an AMI receptor (fmol/ml).

in vivo = conditions: for detection in rat plasma after subcutaneous administration: 50 nmol/kg subcutaneous, Experiment X; for Cmax: male, Wistar, rat, in vivo, sc, 50 nmol/kg
Protocol: Seven-week-old male Wistar rats were prepared, and grown with normal feeds. To determine plasma AM concentrations, 50 nmol/kg of AM or an AM analog was subcutaneously administered. A peripheral blood sample was collected from the tail vein into a Kantan tube® (containing heparin Na, Eiken Chemical Co., Ltd., Tochigi, Japan) at predetermined times (0, 15, 30, 60, and 120 minutes after administration). The tube was centrifuged at 2,000×g. Plasma was collected from the tube, and transferred into a test tube (containing 21 μg of aprotinin and 0.3 mg of EDTA-2Na) and stored. […] In the figure, the abscissa represents elapsed time after subcutaneous administration (hr), and the ordinate represents concentration in plasma of AM or an AM analog (pM). In addition, maximum concentrations in blood (Cmax) of AM or the AM analogs in rat plasma after subcutaneous administration were calculated.

CC[C@H](C)[C@H](NC(=O)[C@H](CCC(N)=O)NC(=O)[C@H](Cc1c[nH]cn1)NC(=O)[C@H](C)NC(=O)[C@H](CC(C)C)NC(=O)[C@H](CCCCN)NC(=O)[C@H](CCC(N)=O)NC(=O)[C@@H](NC(=O)[C@@H](NC(=O)[C@@H]1CSSC[C@H](NC(=O)CNC(=O)[C@H](Cc2ccccc2)NC(=O)[C@@H](N)CO)C(=O)N[C@@H](CCCNC(=N)N)C(=O)N[C@@H](Cc2ccccc2)C(=O)NCC(=O)N[C@@H]([C@@H](C)O)C(=O)N1)[C@@H](C)O)C(C)C)C(=O)N[C@@H](Cc1ccc(O)cc1)C(=O)N[C@@H](CCC(N)=O)C(=O)N[C@@H](Cc1ccccc1)C(=O)N[C@H](C(=O)N[C@@H](CC(=O)O)C(=O)N[C@@H](CCCCN)C(=O)N[C@@H](CC(=O)O)C(=O)N[C@@H](CCCCN)C(=O)N[C@@H](CC(=O)O)C(=O)N[C@@H](CC(N)=O)C(=O)N[C@H](C(=O)N[C@@H](C)C(=O)N1CCC[C@H]1C(=O)N[C@@H](CCCNC(=N)N)C(=O)N1CCC[C@H]1C(=O)N[C@@H](CCCCN)C(=O)N[C@H](C(=O)N[C@@H](CO)C(=O)N1CCC[C@H]1C(=O)N[C@@H](CCC(N)=O)C(=O)NCC(=O)N[C@@H](Cc1ccc(O)cc1)C(N)=O)[C@@H](C)CC)C(C)C)[C@@H](C)O [[Pro-45]hAM(13-52), SFGCRFGTCTVQKLAHQIYQFTDKDKDNVAPRPKISPQGY-CONH2] (H-SFGCRFGTCTVQKLAHQIYQFTDKDKDNVAPRPKISPQGY-NH2; disulfide 4-9)
remaining at 4 h (in vitro; human, serum): ~60%

CC[C@H](C)[C@H](NC(=O)[C@H](CCC(N)=O)NC(=O)[C@H](Cc1c[nH]cn1)NC(=O)[C@H](C)NC(=O)[C@H](CC(C)C)NC(=O)[C@H](CCCCN)NC(=O)[C@H](CCC(N)=O)NC(=O)[C@@H](NC(=O)[C@@H](NC(=O)[C@@H]1CSSC[C@H](NC(=O)CNC(=O)[C@H](Cc2ccccc2)NC(=O)[C@@H](N)CO)C(=O)N[C@@H](CCCNC(=N)N)C(=O)N[C@@H](Cc2ccccc2)C(=O)NCC(=O)N[C@@H]([C@@H](C)O)C(=O)N1)[C@@H](C)O)C(C)C)C(=O)N[C@@H](Cc1ccc(O)cc1)C(=O)N[C@@H](CCC(N)=O)C(=O)N[C@@H](Cc1ccccc1)C(=O)N[C@H](C(=O)N[C@@H](CC(=O)O)C(=O)N[C@@H](CCCCN)C(=O)N[C@@H](CC(=O)O)C(=O)N[C@@H](CCCCN)C(=O)N[C@@H](CC(=O)O)C(=O)N[C@@H](CC(N)=O)C(=O)N[C@H](C(=O)N[C@@H](C)C(=O)N1CCC[C@H]1C(=O)N[C@@H](CO)C(=O)N[C@@H](CCCCN)C(=O)N[C@H](C(=O)N[C@@H](CO)C(=O)N1CCC[C@H]1C(=O)N[C@@H](CCC(N)=O)C(=O)NCC(=O)N[C@@H](Cc1ccc(O)cc1)C(N)=O)[C@@H](C)CC)C(C)C)[C@@H](C)O [[des-Arg-44]hAM(13-52), SFGCRFGTCTVQKLAHQIYQFTDKDKDNVAPSKISPQGY-CONH2] (H-SFGCRFGTCTVQKLAHQIYQFTDKDKDNVAPSKISPQGY-NH2; disulfide 4-9)
stability in reaction mixture with human serum (in vitro): stable | EC50 [1]: 1.95 nM | intracellular cAMP concentration-increasing activity [1]: approximately equivalent to that of hAM(1-52) or hAM(13-52) | detection in rat plasma after subcutaneous administration (in vivo): detected in rat plasma 15 minutes after administration | Cmax (in vivo): 0.679 nM

CC[C@H](C)[C@H](NC(=O)[C@H](CCC(N)=O)NC(=O)[C@H](Cc1c[nH]cn1)NC(=O)[C@H](C)NC(=O)[C@H](CC(C)C)NC(=O)[C@H](CCCCN)NC(=O)[C@H](CCC(N)=O)NC(=O)[C@@H](NC(=O)[C@@H](NC(=O)[C@@H]1CSSC[C@H](NC(=O)CNC(=O)[C@H](Cc2ccccc2)NC(=O)[C@@H](N)CO)C(=O)N[C@@H](CCCNC(=N)N)C(=O)N[C@@H](Cc2ccccc2)C(=O)NCC(=O)N[C@@H]([C@@H](C)O)C(=O)N1)[C@@H](C)O)C(C)C)C(=O)N[C@@H](Cc1ccc(O)cc1)C(=O)N[C@@H](CCC(N)=O)C(=O)N[C@@H](Cc1ccccc1)C(=O)N[C@H](C(=O)N[C@@H](CC(=O)O)C(=O)N[C@@H](CCCCN)C(=O)N[C@@H](CC(=O)O)C(=O)N[C@@H](CCCCN)C(=O)N[C@@H](CC(=O)O)C(=O)N[C@@H](CC(N)=O)C(=O)N[C@H](C(=O)N[C@@H](C)C(=O)N1CCC[C@H]1C(=O)NCC(=O)N[C@@H](CO)C(=O)N[C@@H](CCCCN)C(=O)N[C@H](C(=O)N[C@@H](CO)C(=O)N1CCC[C@H]1C(=O)N[C@@H](CCC(N)=O)C(=O)NCC(=O)N[C@@H](Cc1ccc(O)cc1)C(N)=O)[C@@H](C)CC)C(C)C)[C@@H](C)O [[Gly-44]hAM(13-52), SFGCRFGTCTVQKLAHQIYQFTDKDKDNVAPGSKISPQGY-CONH2] (H-SFGCRFGTCTVQKLAHQIYQFTDKDKDNVAPGSKISPQGY-NH2; disulfide 4-9)
stability in reaction mixture with human serum (in vitro): stable | EC50 [1]: 11 nM | intracellular cAMP concentration-increasing activity [1]: approximately equivalent to that of hAM(1-52) or hAM(13-52) | detection in rat plasma after subcutaneous administration (in vivo): detected in rat plasma 15 minutes after administration | Cmax (in vivo): 0.76 nM

CC[C@H](C)[C@H](NC(=O)[C@H](CCC(N)=O)NC(=O)[C@H](Cc1c[nH]cn1)NC(=O)[C@H](C)NC(=O)[C@H](CC(C)C)NC(=O)[C@H](CCCCN)NC(=O)[C@H](CCC(N)=O)NC(=O)[C@@H](NC(=O)[C@@H](NC(=O)[C@@H]1CSSC[C@H](NC(=O)CNC(=O)[C@H](Cc2ccccc2)NC(=O)[C@@H](N)CO)C(=O)N[C@@H](CCCNC(=N)N)C(=O)N[C@@H](Cc2ccccc2)C(=O)NCC(=O)N[C@@H]([C@@H](C)O)C(=O)N1)[C@@H](C)O)C(C)C)C(=O)N[C@@H](Cc1ccc(O)cc1)C(=O)N[C@@H](CCC(N)=O)C(=O)N[C@@H](Cc1ccccc1)C(=O)N[C@H](C(=O)N[C@@H](CC(=O)O)C(=O)N[C@@H](CCCCN)C(=O)N[C@@H](CC(=O)O)C(=O)N[C@@H](CCCCN)C(=O)N[C@@H](CC(=O)O)C(=O)N[C@@H](CC(N)=O)C(=O)N[C@H](C(=O)N[C@@H](C)C(=O)N1CCC[C@H]1C(=O)N[C@@H](CC(=O)O)C(=O)N[C@@H](CO)C(=O)N[C@@H](CCCCN)C(=O)N[C@H](C(=O)N[C@@H](CO)C(=O)N1CCC[C@H]1C(=O)N[C@@H](CCC(N)=O)C(=O)NCC(=O)N[C@@H](Cc1ccc(O)cc1)C(N)=O)[C@@H](C)CC)C(C)C)[C@@H](C)O [[Asp-44]hAM(13-52), SFGCRFGTCTVQKLAHQIYQFTDKDKDNVAPDSKISPQGY-CONH2] (H-SFGCRFGTCTVQKLAHQIYQFTDKDKDNVAPDSKISPQGY-NH2; disulfide 4-9)
stability in reaction mixture with human serum (in vitro): stable
